According to patent US3963745A, “Method for controlling emesis with N-(1-substituted-3-pyrrolidinyl)benzamides and thiobenzamides” (A. H. Robins Company, Incorporated, priority 1974, dated 1976):
Structures can show the parent of a compound that is named as a salt. Where two headings read alike, the source gives them in different places.

Assays:
Assay type in all cases: in vivo
[1] = tested on: apomorphine-induced emesis; assay: apomorphine-induced emesis in dogs (anti-emetic effect); conditions: for ED50: Canis lupus familiaris
Method: The anti-emetic properties of the compounds of Formulae I and II were established using a modification of the methods of Chen and Ensor, J. Pharmac. Exp. Ther. 98: 245-250 (1950) and of Leonard et al, J. Pharmac. Exp. Ther. 154, 339-345 (1966). Drug activity was assessed by its ability to reduce the frequency of apomorphine-induced emesis in dogs. The dogs were prescreened for fairly constant emetic responses to the subcutaneous administration of 0.1 mg./kg. of apomorphine hydrochloride, and those which vomited five or more times in the 40-minute period after apomorphine administration were selected for drug studies.
Groups of three dogs were used in preliminary tests and for the determinations of time of peak drug effect. Dose response curves were usually obtained using four drug-treated groups; each group contained at least three dogs. The dogs were fed approximately 17 hours prior to a test. Drugs were administered and at suitable intervals the dogs received 0.1 mg/kg of apormorphine hydrochloride subcutaneously. Frequency of emesis was determined during the next 40 minutes and emesis was counted as the actual expulsion of stomach contents.
In oral studies, drugs were administered in gelatin capsules (controls received an empty capsule). In the subcutaneous studies, drugs were administered in distilled water and/or polyethylene glycol-300.
Dogs were re-used at intervals of not less than one week. The ED50 is the dose which reduces the frequency of emesis of drug treated dogs to a value 50% below that of controls. Mean frequency of emesis for each drug treated group was compared with a mean control value derived by pooling the prior control emetic frequencies for all dogs used on that test day. The difference is expressed as a percentage decrease relative to controls. The per cent decrease in mean frequency of emesis for each drug-treated group (ordinate) was plotted against log dose (abscissa) on semi-log graph sheets. The ED50 was calculated by the method of Goldstein (Biostatistics, An Introductory Test; Pages 156-161; the MacMillan Co., New York, 1964).

catalepsy in rats [2] = assay: Catalepsy in rats; conditions: Table 7, rats, IP
Method: (§1) Drugs were blind tested with positive and negative controls. The procedure used is a modification of the method previously described by Tedeschi et al., Archs. Int. Pharmacodyn. Ther. 122, 129-143 (1959). The modified procedure is as follows.
(§2) Groups of six rats are dosed (IP) with drugs in saline solution and tested hourly over a 6 hour period. A phenothiazine or non-phenothiazine reference standard is tested concomitantly as a positive control; negative controls receive only the saline vehicle. After administration the rats are positioned hourly with each foot on a No. 7 rubber stopper. A rat is considered cataleptic if it remains immobile on the stoppers for five seconds or longer at two or more consecutive hourly observation intervals. […] Exp. Ther. 96, 99-113 (1949).

Catalepsy in rats [3] = conditions: rat, in vivo, ip
Method: as §1, §2

[4] = sc, Table 4, dogs, subcutaneous, doses expressed as free base, read-out: ED50, Anti-Emetic Effect of Subcutaneous Administration
[5] = sc, Table 6, dogs, subcutaneous, as free base, read-out: Anti-Apomorphine Effect ED50
[6] = sc, Table 7, dogs, subcutaneous, as free base, read-out: Anti-Apomorphine Effect ED50
[7] = Table 5, dogs, oral, doses expressed as free base, read-out: ED50, Anti-Emetic Effect of Oral Administration
[8] = sc, read-out: ED50, Anti-Emetic Effect of Subcutaneous Administration

For `CSc1ccc(C(=O)NC2CCN(C3CCCCC3)C2)cc1` (stereo not drawn) [Example 33], the ED50 [1, 4] was 0.88 mg/kg.
In the case of `CN(C)c1ccc(C(=O)NC2CCN(C3CCCCC3)C2)cc1` (stereo not drawn) [Example 35], the ED50 [1, 4] is reported as 0.89 mg/kg.
With `COc1ccc(C(=O)NC2CCN(C3CCCCC3)C2)c(OC)c1` (stereo not drawn) [Example 34] the ED50 [1, 4] was 0.026 mg/kg.
Work on `O=C(NC1CCN(C2CCCCC2)C1)c1ccccc1` (stereo not drawn) [Example 24] yielded an ED50 [1, 4] of 0.28 mg/kg and an ED50 [1, 5] of 0.28 mg/kg.
`O=C(NC1CCN(C2CCCCC2)C1)c1ccc(Cl)cc1` (stereo not drawn) [Example 17] showed an ED50 [1, 4] of 0.28 mg/kg.
`CN1CCC(NC(=O)c2ccccc2)C1.O=C(O)/C=C/C(=O)O` (stereo not drawn) [Example 8(A), N-(1-Methyl-3-pyrrolidinyl)benzamide Fumarate, reference compound] showed an ED50 [1, 5] of 3.2 mg/kg.
In the case of `O=C(NC1CCN(C2CCCCC2)C1)c1ccc(Br)cc1` (stereo not drawn) [Example 11], the ED50 [1, 4] is reported as 0.7 mg/kg.
`Nc1ccc(C(=O)NC2CCN(C3CCCCC3)C2)cc1` (stereo not drawn) [Example 23] gave an ED50 [1, 4] of 1.67 mg/kg, an ED50 [1, 6] of 1.7 mg/kg and an ED50 [1, 7] of 2.5 mg/kg. For the same molecule, the “Catalepsy, percentage of rats cataleptic” value (catalepsy in rats [2]; at 94.2 mg/kg as free base) was 33%.
`O=C(NC1CCN(C2CCCCC2)C1)c1ccc(Cl)cc1Cl` (stereo not drawn) [Example 32] showed an ED50 [1, 8] of 2.4 mg/kg.
With `CN(C(=O)c1ccc([N+](=O)[O-])cc1)C1CCN(C2CCCCC2)C1` (stereo not drawn) [Example 27] the ED50 [1, 6] was 10 mg/kg, the “Catalepsy (ED50 or other): no catatonia up to dose” value (catalepsy in rats [2]; as free base) was “no catatonia to 100” and the lethal dose (catalepsy in rats [2]; as free base) was 100 mg/kg.
With `O=C(NC1CCN(C2CCCCC2)C1)c1ccc(F)cc1` (stereo not drawn) [Example 10] the ED50 [1, 8] was 0.15 mg/kg and the ED50 [1, 7] was 1.5 mg/kg.
`O=C(NC1CCN(C2CCCCC2)C1)c1ccc(I)cc1` (stereo not drawn) [Example 20] showed an ED50 [1, 4] of 1.25 mg/kg.
In the case of `CN(C(=O)c1ccc(N)cc1)C1CCN(C2CCCCC2)C1` (stereo not drawn) [Example 4, 4-Amino-N-(1-cyclohexyl-3-pyrrolidinyl)-N-methylbenzamide Cyclohexanesulfamate], the ED50 [1, 6] is reported as 0.27 mg/kg, the ED50 ([1]; sc, dogs, subcutaneous, cyclohexanesulfamate salt dose, read-out: ED50 for subcutaneous administration) is reported as 0.43 mg/kg and the ED50 ([1]; sc, dogs, subcutaneous, expressed as free base (Example 1P), read-out: ED50 for subcutaneous administration, expressed as free base) is reported as 0.27 mg/kg. For the same molecule, the blockage of apomorphine induced emesis ([1]; dogs, oral capsules 2.5 mg./kg., apomorphine after two hours) was 95%, the blockage of emesis ([1]; dogs, subcutaneous 5.0 mg./kg. (3.12 mg./kg. as free base), apomorphine one hour later, 40-minute period) was 100% and the “Catalepsy (ED50 or other): no catatonia up to dose” value (catalepsy in rats [2]; as free base) was “no catatonia to 125”.
`COc1cc(N)c(Cl)cc1C(=O)NC1CCN(C)C1` (stereo not drawn) [Example 8(B), 4-Amino-5-chloro-2-methoxy-N-(1-methyl-3-pyrrolidinyl)benzamide, reference compound] gave an ED50 [1, 5] of 0.053 mg/kg.
For `O=C(NC1CCN(C2CCCCC2)C1)c1cccc(Br)c1` (stereo not drawn) [Example 1, N-(1-Cyclohexyl-3-pyrrolidinyl)-3-bromobenzamide], the ED50 [1, 4] was 0.4 mg/kg.
`O=C(NC1CCN(C2CCCCC2)C1)c1ccccc1F` (stereo not drawn) [Example 2, N-(1-Cyclohexyl-3-pyrrolidinyl)-2-fluorobenzamide hydrochloride] gave an ED50 [1, 4] of 1.6 mg/kg.
In the case of `CNc1ccc(C(=O)N(C)C2CCN(C3CCCCC3)C2)cc1.Cl.Cl` (stereo not drawn) [Example 9, 4-Methylamino-N-(1-cyclohexyl-3-pyrrolidinyl)-N-methylbenzamide Dihydrochloride], the ED50 [1, 4] is reported as 0.5 mg/kg.
Work on `COc1cc(C(=O)NC2CCN(C3CCCCC3)C2)cc(OC)c1OC` (stereo not drawn) [Example 18] yielded an ED50 [1, 4] of 0.4 mg/kg.
With `CC(=O)Nc1ccc(C(=O)NC2CCN(C3CCCCC3)C2)cc1` (stereo not drawn) [Example 7, N-(1-Cyclohexyl-3-pyrrolidinyl)-4-acetamidobenzamide] the ED50 [1, 8] was 2.4 mg/kg.
With `CN(C)c1ccc(C(=O)N(C)C2CCN(C3CCCCC3)C2)cc1` (stereo not drawn) [Example 6, N-(1-Cyclohexyl-3-pyrrolidinyl)-p-dimethylamino-N-methylbenzamide Fumarate] the ED50 [1, 4] was 1.1 mg/kg.
Work on `O=C(NC1CCN(C2CCCCC2)C1)c1cccc(C(F)(F)F)c1` (stereo not drawn) [Example 16] yielded an ED50 [1, 4] of 0.18 mg/kg.
Molecule `COc1cc(N)c(Cl)cc1C(=O)NC1CCN(C2CCCCC2)C1` (stereo not drawn) [Example 37] has an ED50 [1, 4] of 0.003 mg/kg and an ED50 [1, 5] of 0.003 mg/kg.
Molecule `Cc1ccc(C(=O)NC2CCN(C3CCCCC3)C2)cc1` (stereo not drawn) [Example 36] has an ED50 [1, 4] of 0.31 mg/kg.
`O=C(NC1CCN(C2CCCCC2)C1)c1cc([N+](=O)[O-])cc([N+](=O)[O-])c1` (stereo not drawn) [Example 12] gave an ED50 [1, 8] of 0.15 mg/kg.
`O=C(NC1CCN(C2CCCCC2)C1)c1ccc(Cl)c(Cl)c1` (stereo not drawn) [Example 13] showed an ED50 [1, 4] of 0.28 mg/kg.
`O=C(NC1CCN(C2CCCCC2)C1)c1ccc([N+](=O)[O-])cc1` (stereo not drawn) [Example 25] showed an ED50 [1, 4] of 2.03 mg/kg, an ED50 [1, 6] of 1.8 mg/kg and a TD50 at 6 h (Catalepsy in rats [3]) of 28 mg/kg.
Work on `CCOc1ccc(C(=O)NC2CCN(C3CCCCC3)C2)cc1OCC` (stereo not drawn) [Example 15] yielded an ED50 [1, 4] of 0.66 mg/kg.
